US11040970B2, “VMAT2 inhibitor compounds and compositions thereof” (Neurocrine Biosciences, Inc., priority 2017, dated 2021)

test system: vesicular monoamine transporter-2 (VMAT2); assay: not given; conditions: read-out: IC50 catecholamine uptake by VMAT2; cited from earlier work

Row | Compound | IC50
1 | COc1cc2c(cc1OC)C1CC(=O)C(CC(C)C)CN1CC2 (centres unmarked) [Tetrabenazine, 3-Isobutyl-9,10-dimethoxy-1,3,4,6,7,11b-hexahydro-2H-pyrido[2,1-a]-isoquinolin-2-one] | […]

target: VMAT2 (Homo sapiens (Human), UniProt Q05940); assay: VMAT2 radioligand binding assay: competition against 3H-dihydrotetrabenezine on human platelet homogenate (modified procedure); conditions: 10 nM 3H-dihydrotetrabenezine, 25° C., 90 minutes
Description: Examples of techniques for determining the capability of a compound to inhibit VMAT2 are provided below. The procedure is adapted from that described previously (see, e.g., Near, (1986), Mol. Pharmacol. 30: 252-57; Teng, et al., J. Neurochem. 71, 258-65, 1998). Homogenates from human platelets or Sprague-Dawley rat forebrain were prepared by homogenization and then washed by centrifugation as described previously (see, e.g., Hoare et al., (2003) Peptides 24:1881-97). […] Following incubation at 25° C. for two hours, bound radioligand was collected by rapid filtration onto GF/B glass fiber filters using a Unifilter-96 Harvester (PerkinElmer). Filter plates were pre-treated for 10 minutes with 0.1% polyethylenimine, and following harvesting the filter plates were washed with 800 μl VMAT2 binding buffer. Bound radioligand was quantified by scintillation counting using a Topcount NXT (PerkinElmer).
Following incubation at 25° C. for 90 minutes, bound radioligand was collected by rapid filtration onto GF/B glass fiber filters using a Unifilter-96 Harvester (PerkinElmer). Filter plates were pre-treated with 0.1% polyethylenimine and allowed to dry overnight, and following harvesting the filter plates were washed with 800 μl VMAT2 binding buffer. Bound radioligand was quantified by scintillation counting using a Topcount NXT (PerkinElmer).

VMAT2, sequence (Q05940 whole entry): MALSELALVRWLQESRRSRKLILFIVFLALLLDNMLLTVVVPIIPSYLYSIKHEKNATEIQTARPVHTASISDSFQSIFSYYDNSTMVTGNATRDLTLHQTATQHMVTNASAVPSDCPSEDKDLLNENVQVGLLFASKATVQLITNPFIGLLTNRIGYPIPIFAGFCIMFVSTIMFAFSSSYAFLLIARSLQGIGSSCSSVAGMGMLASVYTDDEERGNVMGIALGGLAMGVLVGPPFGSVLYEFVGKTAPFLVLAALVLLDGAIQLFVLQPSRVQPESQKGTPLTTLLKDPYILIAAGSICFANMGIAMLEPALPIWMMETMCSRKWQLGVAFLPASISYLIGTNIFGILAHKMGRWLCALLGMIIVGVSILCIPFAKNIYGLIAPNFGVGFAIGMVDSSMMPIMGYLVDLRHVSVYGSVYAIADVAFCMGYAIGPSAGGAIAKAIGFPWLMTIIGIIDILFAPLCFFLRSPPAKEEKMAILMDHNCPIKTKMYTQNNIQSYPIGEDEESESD

Row | Compound | Ki
2 | COc1cc2c(cc1OCC1CC1(F)F)CCN1C[C@@H](CC3CCC3)N(C)C[C@H]21 (stereo partly drawn) [Compound 8-3, (3R,11bS)-3-(cyclobutylmethyl)-9-[(2,2-difluorocyclopropyl)methoxy]-10-methoxy-2-methyl-1H,2H,3H,4H,6H,7H,11bH-piperazino[2,1-a]isoquinoline] | 10 to 500 nM
3 | COc1cc2c(cc1OCCF)CCN1C[C@@H](CC3CCC3)N(C)C[C@H]21 [Compound 8-4, (3R,11bS)-3-(cyclobutylmethyl)-9-(2-fluoroethoxy)-10-methoxy-2-methyl-1H,2H,3H,4H,6H,7H,11bH-piperazino[2,1-a]isoquinoline] | 10 to 500 nM
4 | COc1cc2c(cc1OCC1CC1)CCN1C[C@@H](CC3CCC3)N(C)C[C@H]21 [Compound 8-5, (3R,11bS)-3-(cyclobutylmethyl)-9-(cyclopropylmethoxy)-10-methoxy-2-methyl-1H,2H,3H,4H,6H,7H,11bH-piperazino[2,1-a]isoquinoline] | 10 to 500 nM
5 | COc1cc2c(cc1OCC1CCC1)CCN1C[C@@H](CC3CCC3)N(C)C[C@H]21 [Compound 8-6, (3R,11bS)-9-(cyclobutylmethoxy)-3-(cyclobutylmethyl)-10-methoxy-2-methyl-1H,2H,3H,4H,6H,7H,11bH-piperazino[2,1-a]isoquinoline] | < 10 nM
6 | COc1cc2c(cc1OCCCC(F)(F)F)CCN1C[C@@H](CC3CCC3)N(C)C[C@H]21 [Compound 8-7, (3R,11bS)-3-(cyclobutylmethyl)-10-methoxy-2-methyl-9-(4,4,4-trifluorobutoxy)-1H,2H,3H,4H,6H,7H,11bH-piperazino[2,1-a]isoquinoline] | 10 to 500 nM
7 | COc1cc2c(cc1OCCCCF)CCN1C[C@@H](CC3CCC3)N(C)C[C@H]21 [Compound 8-8, (3R,11bS)-3-(cyclobutylmethyl)-9-(4-fluorobutoxy)-10-methoxy-2-methyl-1H,2H,3H,4H,6H,7H,11bH-piperazino[2,1-a]isoquinoline] | 10 to 500 nM
8 | COc1cc2c(cc1OCCCF)CCN1C[C@@H](CC3CCC3)N(C)C[C@@H]21 [Compound 9-1, (3R,11bR)-3-(cyclobutylmethyl)-9-(3-fluoropropoxy)-10-methoxy-2-methyl-1H,2H,3H,4H,6H,7H,11bH-piperazino[2,1-a]isoquinoline] | > 500 nM
9 | COc1cc2c(cc1OCCCF)CCN1C[C@@H](CC(C)(C)C)N(C)C[C@H]21 [Compound 11-1, (3R,11bS)-3-(2,2-dimethylpropyl)-9-(3-fluoropropoxy)-10-methoxy-2-methyl-1H,2H,3H,4H,6H,7H,11bH-piperazino[2,1-a]isoquinoline] | < 10 nM
10 | COc1cc2c(cc1OC)[C@H]1CN(C)[C@H](CC(C)(C)C)CN1CC2 [Compound 11-2, (3R,11bS)-3-(2,2-dimethylpropyl)-9,10-dimethoxy-2-methyl-1H,2H,3H,4H,6H,7H,11bH-piperazino[2,1-a]isoquinoline] | < 10 nM
11 | COc1cc2c(cc1OCC(F)(F)F)CCN1C[C@@H](CC(C)(C)C)N(C)C[C@H]21 [Compound 11-3, (3R,11bS)-3-(2,2-dimethylpropyl)-10-methoxy-2-methyl-9-(2,2,2-trifluoroethoxy)-1H,2H,3H,4H,6H,7H,11bH-piperazino[2,1-a]isoquinoline] | < 10 nM
12 | COc1cc2c(cc1OCC1CC1(F)F)CCN1C[C@@H](CC(C)(C)C)N(C)C[C@H]21 (stereo partly drawn) [Compound 11-4, (3R,11bS)-9-[(2,2-difluorocyclopropyl)methoxy]-3-(2,2-dimethylpropyl)-10-methoxy-2-methyl-1H,2H,3H,4H,6H,7H,11bH-piperazino[2,1-a]isoquinoline] | < 10 nM
13 | COc1cc2c(cc1OCCC(F)(F)F)CCN1C[C@@H](CC(C)(C)C)N(C)C[C@H]21 [Compound 11-5, (3R,11bS)-3-(2,2-dimethylpropyl)-10-methoxy-2-methyl-9-(3,3,3-trifluoropropoxy)-1H,2H,3H,4H,6H,7H,11bH-piperazino[2,1-a]isoquinoline] | < 10 nM
14 | COc1cc2c(cc1OCCF)CCN1C[C@@H](CC(C)(C)C)N(C)C[C@H]21 [Compound 11-6, (3R,11bS)-3-(2,2-dimethylpropyl)-9-(2-fluoroethoxy)-10-methoxy-2-methyl-1H,2H,3H,4H,6H,7H,11bH-piperazino[2,1-a]isoquinoline] | < 10 nM
15 | COc1cc2c(cc1OCC1CC1)CCN1C[C@@H](CC(C)(C)C)N(C)C[C@H]21 [Compound 11-7, (3R,11bS)-9-(cyclopropylmethoxy)-3-(2,2-dimethylpropyl)-10-methoxy-2-methyl-1H,2H,3H,4H,6H,7H,11bH-piperazino[2,1-a]isoquinoline] | < 10 nM
16 | COc1cc2c(cc1OCC1CCC1)CCN1C[C@@H](CC(C)(C)C)N(C)C[C@H]21 [Compound 11-8, (3R,11bS)-9-(cyclobutylmethoxy)-3-(2,2-dimethylpropyl)-10-methoxy-2-methyl-1H,2H,3H,4H,6H,7H,11bH-piperazino[2,1-a]isoquinoline] | < 10 nM
17 | COc1cc2c(cc1OCCCC(F)(F)F)CCN1C[C@@H](CC(C)(C)C)N(C)C[C@H]21 [Compound 11-9, (3R,11bS)-3-(2,2-dimethylpropyl)-10-methoxy-2-methyl-9-(4,4,4-trifluorobutoxy)-1H,2H,3H,4H,6H,7H,11bH-piperazino[2,1-a]isoquinoline] | < 10 nM
18 | COc1cc2c(cc1OCCCCF)CCN1C[C@@H](CC(C)(C)C)N(C)C[C@H]21 [Compound 11-10, (3R,11bS)-3-(2,2-dimethylpropyl)-9-(4-fluorobutoxy)-10-methoxy-2-methyl-1H,2H,3H,4H,6H,7H,11bH-piperazino[2,1-a]isoquinoline] | < 10 nM
19 | COCCOc1cc2c(cc1OC)[C@H]1CN(C)[C@H](CC(C)(C)C)CN1CC2 [Compound 11-11, (3R,11bS)-3-(2,2-dimethylpropyl)-10-methoxy-9-(2-methoxyethoxy)-2-methyl-1H,2H,3H,4H,6H,7H,11bH-piperazino[2,1-a]isoquinoline] | 10 to 500 nM
20 | CCOc1cc2c(cc1OC)[C@H]1CN(C)[C@H](CC(C)(C)C)CN1CC2 [Compound 11-12, (3R,11bS)-3-(2,2-dimethylpropyl)-9-ethoxy-10-methoxy-2-methyl-1H,2H,3H,4H,6H,7H,11bH-piperazino[2,1-a]isoquinoline] | < 10 nM
21 | COc1cc2c(cc1OC(C)C)CCN1C[C@@H](CC(C)(C)C)N(C)C[C@H]21 [Compound 11-13, (3R,11bS)-3-(2,2-dimethylpropyl)-10-methoxy-2-methyl-9-(propan-2-yloxy)-1H,2H,3H,4H,6H,7H,11bH-piperazino[2,1-a]isoquinoline] | < 10 nM
22 | COc1cc2c(cc1OCCCF)CCN1C[C@@H](CC(C)(C)C)N(C)C[C@@H]21 [Compound 12-1, (3R,11bR)-3-(2,2-dimethylpropyl)-9-(3-fluoropropoxy)-10-methoxy-2-methyl-1H,2H,3H,4H,6H,7H,11bH-piperazino[2,1-a]isoquinoline] | 10 to 500 nM
23 | COc1cc2c(cc1OC)[C@@H]1CN(C)[C@H](CC(C)(C)C)CN1CC2 [Compound 12-2, (3R,11bR)-3-(2,2-dimethylpropyl)-9,10-dimethoxy-2-methyl-1H,2H,3H,4H,6H,7H,11bH-piperazino[2,1-a]isoquinoline] | > 500 nM
